# Experiments:
# Type in all cases: cell-based
# [1] = biological target: T1, hP2X3 (human Purinergic P2X receptors subtype 3) (Homo sapiens, UniProt P56373); assay: Fluo-4 calcium mobilization assay, α,β methylene-ATP as agonist (Method 2); conditions: RLE cells stably expressing hP2X3; α,β methylene-ATP instead of ATP; read-out: Human P2X3 IC50 (μM) Method 2
# T1 construct: expressed in transfected cells
# T1 sequence (P56373 1-397): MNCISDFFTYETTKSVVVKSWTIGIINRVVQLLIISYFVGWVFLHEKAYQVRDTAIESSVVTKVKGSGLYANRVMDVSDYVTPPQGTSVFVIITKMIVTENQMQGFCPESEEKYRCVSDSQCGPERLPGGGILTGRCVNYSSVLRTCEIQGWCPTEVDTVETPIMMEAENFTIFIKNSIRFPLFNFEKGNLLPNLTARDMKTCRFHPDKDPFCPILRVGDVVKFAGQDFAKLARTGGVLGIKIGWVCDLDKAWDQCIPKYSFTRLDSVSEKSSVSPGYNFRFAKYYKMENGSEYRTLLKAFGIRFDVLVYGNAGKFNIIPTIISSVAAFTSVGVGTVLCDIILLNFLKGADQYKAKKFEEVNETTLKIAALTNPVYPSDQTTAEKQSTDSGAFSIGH
# Method: (§1) The antagonist properties of compounds in the present invention were assayed as inhibitors of intracellular calcium increase induced by activation of hP2X3 (human Purinergic P2X receptors subtype 3, accession number AB016608 for clone A and accession number NM_002559 for clone B), expressed in RLE cells (rat liver […], ATCC. The RLE/hP2X3 cells were grown in William's medium 1× (Gibco, 12551-032), supplemented with 10% Fetal bovine serum (Wisent, 090850), 2 mM L-Glutamine (Wisent, 609-065-EL), and 600 μg/mL Geneticin G-418 (Wisent, 61234) in a humidified incubator (5% CO2 and 37° C.).
# In one assay, Fluo-4 assay on FDSS7000 (Hamamatsu) was performed using cryopreserved RLE cells stably expressing hP2X3 plated in 384 well plates, 24 hr before the experiment at a density appropriate for obtaining the desired final confluence. After processing the cell plates with Fluo-4 and performing a subsequent incubation followed by washing steps, a double addition was carried out. The first addition included the test compounds diluted in HBSS buffer containing 2 mM CaCl2 preincubated for 20 min before a second addition. […] Calcium mobilization was measured with the FDSS7000 over a time lapse of 3 min, and fluorescent counts were exported for analysis. […] Hill coefficients and % inhibitions can also be determined. […]
# [2] = biological target: T1, hP2X3 (human Purinergic P2X receptors subtype 3); assay: Fluo-4 calcium mobilization assay on FDSS7000, ATP as agonist (Method 1); conditions: RLE cells stably expressing hP2X3; 2 uM ATP; 20 min preincubation; read-out: Human P2X3 IC50 (μM) Method 1
# Method: as §1
# In one assay, Fluo-4 assay on FDSS7000 (Hamamatsu) was performed using cryopreserved RLE cells stably expressing hP2X3 plated in 384 well plates, 24 hr before the experiment at a density appropriate for obtaining the desired final confluence. After processing the cell plates with Fluo-4 and performing a subsequent incubation followed by washing steps, a double addition was carried out. The first addition included the test compounds diluted in HBSS buffer containing 2 mM CaCl2 preincubated for 20 min before a second addition. The second addition included 2 uM of ATP. Calcium mobilization was measured with the FDSS7000 over a time lapse of 3 min, and fluorescent counts were exported for analysis. […] Hill coefficients and % inhibitions can also be determined.
# [3] = biological target: T1, hP2X3 (human Purinergic P2X receptors subtype 3); assay: FLIPR FLUO-4 AM calcium assay, α,β-methylene-ATP as agonist (Method 3); conditions: hP2X3-expressing RLE cells, 500 nM α,β-methylene-ATP, read-out: Human P2X3 IC50 (μM) Method 3
# Method: as §1
# In a third assay, hP2X3-expressing cells were maintained in culture and the day before the experiment, the cells were plated in 384-black polylysine coated plates (Becton/Dickinson, 356663) at 8000 cells/well in 50 μL/well in William's medium without Geneticin, and then placed in an incubator for 24 hr. On the day of the experiment, the cells and test compounds were prepared as follows. […] Experiments were initiated by measuring a baseline fluorescence reading for 10 sec, followed by adding 12.5 μL of compounds and data sampling for a total 280 seconds. […] During entire experiment, fluorescence emission was read by the FLIPR on board CCD camera using filter with emission wavelength of 520-545 nm. […] Hill coefficients and % inhibitions can also be determined.
SMILES,IC50 [1],IC50 [2],IC50 [3]
"CNC(=O)c1cc(F)c(-c2nc3cc(C)ccc3n2C[C@H]2CN(C(=O)OC)CCO2)c(F)c1 [Example 3, (S)-methyl 2-((2-(2,6-difluoro-4-(methylcarbamoyl)phenyl)-5-methyl-1H-benzo[d]imidazol-1-yl)methyl)morpholine-4-carboxylate]",0.014 µM,0.007 µM,0.016 µM
"CNC(=O)c1cc(F)c(-c2nc3cc(C)ccc3n2C[C@@H]2CN(C(=O)OC)CCO2)c(F)c1 [Example 5, (R)-methyl 2-((2-(2,6-difluoro-4-(methylcarbamoyl)phenyl)-5-methyl-1H-benzo[d]imidazol-1-yl)methyl)morpholine-4-carboxylate]",,,0.016 µM

# Source: US8530467B2, “Benzoimidazole compounds and uses thereof” (Neomed Institute, priority 2009, dated 2013)
